Data set [1] in a line: Stability under ethylene oxide sterilization, heating and aging with paclitaxel. To be noted: formulated with paclitaxel. In kind it is physicochemical.
Data set [2] is described as follows: Drug coated PTCA balloon catheter in pig blood vessels: residual drug on balloon and drug content in tissue by tissue extraction and HPLC. To be noted: after only 0.2-2 minutes of deployment; substance used as additive in the drug coating.
Source text: 6 PTCA balloon catheters (3.5 and 3.0 mm in diameter and 20 mm in length) were inflated at 1-3 atm. […] The sufficient amount of drug on the balloon (3 microgram per square mm) was obtained. The inflated balloon was folded, and then dried. The coated folded balloon was then rewrapped and sterilized for animal testing.
The coated PTCA balloon catheter was inserted into target site in the blood vessels (LAD, LCX and RCA) in the 25-45 ib pig was inflated to 12 atm. […] The drug was delivered into the target tissue in 30-60 seconds. The balloon catheter was then deflated and was withdrawn from the animal body. The target blood vessel was harvested at 0.25-24 hours after inflation. The drug content in the target tissue and the residual drug remained on the balloon were analyzed by tissue extraction and HPLC. In some of the animal tests the stent was crimped on the drug coated balloon catheters prior to deployment.
All data is the average of five or six experimental data points.
The conditions of data set [3]: with the addition of BSA; cited from earlier work.
Data set [4] has as its system albumin. To be noted: cited from earlier work.
For data set [5] the following is noted: 1 minute after intravenous injection in rats; cited from earlier work.

Take `O=C1O[C@H]([C@@H](O)CO)C(O)=C1O` [ascorbic acid]: in data set [1], the “stability under ethylene oxide sterilization, heating, and aging process” value (“stability” below) was “not stable”.

Consider `O=C(O)c1ccccc1` [benzoic acid], for which the “stability” value in data set [1] is “not stable”.

In the case of `OCCNCCO` [diethanolamine], the “stability” value in data set [1] is listed as “not stable”.

Regarding `O=C(O)c1cc(O)ccc1O` [gentisic acid], the “stability” value in data set [1] is listed as “not stable”.

Take `O=C1O[C@H](CO)[C@@H](O)[C@H](O)[C@H]1O` [gluconolactone]: the “drug absorption by tissue / drug levels in tissue” value in data set [2] is given as “unexpectedly high”.

Take `CC(=O)O[C@H]1C(=O)[C@@]2(C)[C@H]([C@H](OC(=O)c3ccccc3)[C@]3(O)C[C@H](OC(=O)[C@H](O)[C@@H](NC(=O)c4ccccc4)c4ccccc4)C(C)=C1C3(C)C)[C@]1(OC(C)=O)CO[C@@H]1C[C@@H]2O` [paclitaxel]: the “increase of solubility in PBS” value in data set [3] is on record as “over 20 fold”.

Regarding `CO[C@H]1C[C@@H]2CC[C@@H](C)[C@@](O)(O2)C(=O)C(=O)N2CCCC[C@H]2C(=O)O[C@H]([C@H](C)C[C@@H]2CC[C@@H](O)[C@H](OC)C2)CC(=O)[C@H](C)/C=C(\C)[C@@H](O)[C@@H](OC)C(=O)[C@H](C)C[C@H](C)/C=C/C=C/C=C/1C` [rapamycin], the protein bound in data set [4] is on record as 92%.

For `O=C1O[C@H](CO)[C@@H](O)[C@H]1O` [ribonic acid lactone], the “drug absorption by tissue / drug levels in tissue” value in data set [2] is on record as “unexpectedly high”.

On to I-iothalamate, for which the “share of myocardial content found in the extravascular space” value in data set [5] was “approximately 80%”.

Values taken from patent US10881644B2, “Treatment of asthma and chronic obstructive pulmonary disease with anti-proliferate and anti-inflammatory drugs” (Lutonix, Inc., priority 2006, dated 2021).
